{
  "source": "paper PMC9653409",
  "about": "“Generative deep learning enables the discovery of a potent and selective RIPK1 inhibitor” (Nature Communications, 2022)",
  "key": {"[1]": {"tested_on": "TNFα-induced SIRS", "test": "TNFα-induced SIRS mouse model: survival", "format": "in vivo, C57BL/6 female mice"}, "[2]": {"tested_on": "J774A.1 cells", "test": "TSZ-induced J774A.1 cell necroptosis model (CCK8)", "format": "cell-based", "conditions": "Mus musculus, J774.A1", "protocol": "(§1) Cell necroptosis protection assays were performed in 96-well cell culture plates. Cells were plated in each well and cultured at 37 °C overnight. […] The cell survival rate was determined using a CCK8 cell viability assay kit and CLARIOstar (v5.61). […] All experiments were performed at least two times, and each EC50 value was expressed as mean ± standard deviation (SD)."}, "[3]": {"tested_on": "L929 cells", "test": "TZ-induced L929 cell necroptosis model (CCK8)", "format": "cell-based", "conditions": "Mus musculus", "protocol": "as §1"}, "[4]": {"target": "RIPK3 (Homo sapiens, UniProt Q9Y572)", "sequence (Q9Y572 whole entry)": "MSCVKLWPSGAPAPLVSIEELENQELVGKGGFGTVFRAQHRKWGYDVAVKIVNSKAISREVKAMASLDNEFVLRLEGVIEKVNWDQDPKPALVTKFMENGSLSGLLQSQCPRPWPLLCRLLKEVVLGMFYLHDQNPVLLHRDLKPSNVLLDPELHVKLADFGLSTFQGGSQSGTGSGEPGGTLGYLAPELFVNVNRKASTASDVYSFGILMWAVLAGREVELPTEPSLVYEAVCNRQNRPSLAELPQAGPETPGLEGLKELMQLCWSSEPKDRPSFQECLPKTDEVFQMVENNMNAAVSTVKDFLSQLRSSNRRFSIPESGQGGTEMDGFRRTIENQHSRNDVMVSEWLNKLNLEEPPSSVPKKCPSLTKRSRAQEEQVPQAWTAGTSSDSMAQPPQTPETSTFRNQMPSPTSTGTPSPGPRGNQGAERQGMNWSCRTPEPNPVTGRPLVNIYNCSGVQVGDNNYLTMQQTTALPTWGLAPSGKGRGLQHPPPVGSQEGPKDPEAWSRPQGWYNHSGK", "test": "Kinase IC50 assay (Eurofins)", "format": "biochemical", "protocol": "(§2) In vitro kinase activity assays were conducted through the Kinase Profiling Services provided by Eurofins (Eurofins, France). The protocol for the RIPK1 assay is briefly described as follows (Protocols for other kinases are very similar and can be found in http://www.eurofins.com/pharmadiscovery). RIPK1 kinase was incubated with the test compound in assay buffer containing 8 mM MOPS (pH 7.0), 0.2 mM EDTA, 250 μM […], 10 mM magnesium acetate, and 10 μM [γ-33P]-ATP for 15 min at room temperature. The reaction was initiated by the addition of the Mg/ATP mixture. After incubation for 40 min at room temperature, and the reaction was stopped by the addition of 3% phosphoric acid. A 10 μL portion of the reaction mixture was then spotted onto a P30 filter mat and washed four times for 4 min in 0.425% phosphoric acid and once in methanol prior to drying and scintillation counting."}, "[5]": {"target": "RIPK4 (Homo sapiens, UniProt P57078)", "sequence (P57078 whole entry)": "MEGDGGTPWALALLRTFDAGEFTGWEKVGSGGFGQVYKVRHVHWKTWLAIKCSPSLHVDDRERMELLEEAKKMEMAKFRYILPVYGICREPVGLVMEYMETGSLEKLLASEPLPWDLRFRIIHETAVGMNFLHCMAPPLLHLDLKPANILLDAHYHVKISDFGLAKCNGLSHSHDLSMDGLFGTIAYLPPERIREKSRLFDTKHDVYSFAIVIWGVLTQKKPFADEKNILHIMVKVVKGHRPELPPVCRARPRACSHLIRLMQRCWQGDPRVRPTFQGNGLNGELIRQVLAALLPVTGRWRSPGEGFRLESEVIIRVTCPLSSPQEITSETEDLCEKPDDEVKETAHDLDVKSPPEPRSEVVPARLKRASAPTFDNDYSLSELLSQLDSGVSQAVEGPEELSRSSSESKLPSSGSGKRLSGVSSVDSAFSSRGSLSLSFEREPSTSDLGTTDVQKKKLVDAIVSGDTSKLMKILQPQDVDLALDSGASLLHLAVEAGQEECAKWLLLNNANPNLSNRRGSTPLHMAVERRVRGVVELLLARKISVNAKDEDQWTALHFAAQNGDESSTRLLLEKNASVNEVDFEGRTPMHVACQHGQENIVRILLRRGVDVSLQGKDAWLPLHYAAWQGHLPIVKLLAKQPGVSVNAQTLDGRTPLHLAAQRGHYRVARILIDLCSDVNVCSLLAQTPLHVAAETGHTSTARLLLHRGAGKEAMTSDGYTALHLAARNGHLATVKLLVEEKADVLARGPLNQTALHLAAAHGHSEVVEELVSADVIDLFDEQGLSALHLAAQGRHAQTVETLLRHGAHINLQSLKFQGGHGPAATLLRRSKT", "test": "Kinase IC50 assay (Eurofins)", "format": "biochemical", "protocol": "as §2"}, "[6]": {"tested_on": "U937 cells", "test": "TSZ-induced U937 cell necroptosis model (CCK8)", "format": "cell-based", "conditions": "Homo sapiens, U-937", "protocol": "as §1"}, "[7]": {"tested_on": "DSS-induced IBD", "test": "DSS-induced IBD mouse model: survival", "format": "in vivo, C57BL/6 female mice", "design": "key to 1 means death, 0 means survival: 1 means death; 0 means survival", "protocol": "DSS (3% w/v) was administered in drinking water ad libitum for 7 d (from day 0 to day 7). DSS solution was replaced three times on day 2, day 4, and day 6. […] Three mice in each group were killed at random on day 7, and distal colon tissues were collected for analysis. The mice weight and survival rate were recorded daily."}, "[8]": {"tested_on": "DSS-induced IBD", "test": "DSS-induced IBD mouse model: colon H&E and S100a9 immunohistochemistry", "format": "in vivo, C57BL/6 female mice", "conditions": "40 mg/kg i.p., day 7", "protocol": "The heart, liver, spleen, lung, kidney and colon tissues were fixed directly in 4% paraformaldehyde (24 h), embedded in paraffin, and stained with H&E following standard procedures. All images were acquired using a Pannoramic MIDI scanner. The colon tissues were fixed in 4% paraformaldehyde for 24 h. The tissues were sliced to a thickness of […], deparaffinized with xylene, and rehydrated with graded ethanol. The tissue sections were then placed in a repair box filled with citric acid (pH 6.0) antigen retrieval buffer for antigen retrieval in a microwave oven followed by the quenching of endogenous peroxidase activity in 3% hydrogen peroxide. The sections were incubated overnight at 4 °C with primary antibody (S100a9, 73425, CST), which was prepared in PBS (pH 7.4) according to the manufacturer’s instructions. The sections were then washed three times with PBS, incubated for 1 h with the appropriate secondary antibodies, and staining with freshly prepared DAB color developing solution. Subsequently, the sections were counterstained with hematoxylin and mounted in non-aqueous mounting medium. All images were acquired using a Pannoramic MIDI scanner."}, "[9]": {"conditions": "C57B6, mouse, in vivo"}, "[10]": {"tested_on": "HT29 cells", "test": "Dual staining with CytoCalcein Violet 450 and 7-AAD after TSZ", "format": "cell-based", "conditions": "for Dead cell ratio (%): TSZ 24 h, replicates 1-4", "protocol": "The assay of dual staining with CytoCalcein Violet 450 and 7-AAD was performed in a 24-well cell culture plate. Cells were plated in each well and cultured at 37 °C overnight. […] Then use CytoCalcein Violet 450 and 7-AAD to double stain the HT29 cells and observe under the microscope. All images were acquired with an Eclipse Ci-L microscope (Nikon, Japan). The dead cells were measured with Image J software, and the data was analyzed with GraphPad software. The experiment was repeated three times."}},
  "note": "Where “and” joins values, the source holds several entries; their conditions need not be identical. Equal entries are not always repeated.",
  "data": [
    {"smiles": "CC(C)C(=O)Nc1nc2cc(-c3ccc4c(c3)c(C(=O)NC(C)c3ccccc3)cn4C)ccn2n1", "note": "(centres unmarked) [RI-962]", "values": [
      {"measurement": "survival rate", "setting": "[1]; 40 mg/kg i.p. 15 min before mTNFα 300 μg/kg i.v.", "value": 90, "unit": "%"},
      {"measurement": "1 means death, 0 means survival", "setting": "[1]; 40 mg/kg i.p., per animal", "value": "1 and 0"},
      {"measurement": "Time after mTNFα", "setting": "[1]; 40 mg/kg i.p., per animal, time of death or end of observation", "value": "24 h and 72 h"},
      {"measurement": "viability at 56 pM", "setting": "[2]; 0.000056 μM", "value": 1.06, "unit": "%"},
      {"measurement": "viability at 0.000169 µM", "setting": "[2]; 0.000169 μM", "value": 1.51, "unit": "%"},
      {"measurement": "viability at 0.000508 µM", "setting": "[2]; 0.000508 μM", "value": 3.42, "unit": "%"},
      {"measurement": "viability at 0.001524 µM", "setting": "[2]; 0.001524 μM", "value": 11.4, "unit": "%"},
      {"measurement": "viability at 0.004572 µM", "setting": "[2]; 0.004572 μM", "value": 24.7, "unit": "%"},
      {"measurement": "viability at 0.013717 µM", "setting": "[2]; 0.013717 μM", "value": 48.7, "unit": "%"},
      {"measurement": "viability at 0.041152 µM", "setting": "[2]; 0.041152 μM", "value": 85.3, "unit": "%"},
      {"measurement": "viability at 0.123457 µM", "setting": "[2]; 0.123457 μM", "value": 88.9, "unit": "%"},
      {"measurement": "viability at 0.37037 µM", "setting": "[2]; 0.370370 μM", "value": 93, "unit": "%"},
      {"measurement": "viability at 1.11111 µM", "setting": "[2]; 1.111111 μM", "value": 98.3, "unit": "%"},
      {"measurement": "viability at 3.33333 µM", "setting": "[2]; 3.333333 μM", "value": 91.5, "unit": "%"},
      {"measurement": "EC50", "setting": "[2]; J774A.1 treated with TSZ, 24 h", "value": 11.4, "unit": "nM"},
      {"measurement": "viability at 56 pM", "setting": "[3]; L929, 0.000056 μM", "value": 19.1, "unit": "%"},
      {"measurement": "viability at 0.000169 µM", "setting": "[3]; L929, 0.000169 μM", "value": 22.9, "unit": "%"},
      {"measurement": "viability at 0.000508 µM", "setting": "[3]; L929, 0.000508 μM", "value": 24.8, "unit": "%"},
      {"measurement": "viability at 0.001524 µM", "setting": "[3]; L929, 0.001524 μM", "value": 35.2, "unit": "%"},
      {"measurement": "viability at 0.004572 µM", "setting": "[3]; L929, 0.004572 μM", "value": 62.2, "unit": "%"},
      {"measurement": "viability at 0.013717 µM", "setting": "[3]; L929, 0.013717 μM", "value": 83.1, "unit": "%"},
      {"measurement": "viability at 0.041152 µM", "setting": "[3]; L929, 0.041152 μM", "value": 89.4, "unit": "%"},
      {"measurement": "viability at 0.123457 µM", "setting": "[3]; L929, 0.123457 μM", "value": 105, "unit": "%"},
      {"measurement": "viability at 0.37037 µM", "setting": "[3]; L929, 0.370370 μM", "value": 98.5, "unit": "%"},
      {"measurement": "viability at 1.11111 µM", "setting": "[3]; L929, 1.111111 μM", "value": 103, "unit": "%"},
      {"measurement": "viability at 3.33333 µM", "setting": "[3]; L929, 3.333333 μM", "value": 99.1, "unit": "%"},
      {"measurement": "viability at 10 µM", "setting": "[3]; L929, 10.000000 μM", "value": 91.6, "unit": "%"},
      {"measurement": "EC50", "setting": "[3]; L929 treated with TZ, 24 h", "value": 4.2, "unit": "nM"},
      {"measurement": "IC50", "setting": "[4]", "value": "> 10", "unit": "µM"},
      {"measurement": "IC50", "setting": "[5]", "value": "> 10", "unit": "µM"},
      {"measurement": "viability at 56 pM", "setting": "[6]; 0.000056 μM", "value": 1.42, "unit": "%"},
      {"measurement": "viability at 0.000169 µM", "setting": "[6]; 0.000169 μM", "value": 0.727, "unit": "%"},
      {"measurement": "viability at 0.000508 µM", "setting": "[6]; 0.000508 μM", "value": 0.579, "unit": "%"},
      {"measurement": "viability at 0.001524 µM", "setting": "[6]; 0.001524 μM", "value": 2.66, "unit": "%"},
      {"measurement": "viability at 0.004572 µM", "setting": "[6]; 0.004572 μM", "value": 8.5, "unit": "%"},
      {"measurement": "viability at 0.013717 µM", "setting": "[6]; 0.013717 μM", "value": 37.9, "unit": "%"},
      {"measurement": "viability at 0.041152 µM", "setting": "[6]; 0.041152 μM", "value": 78, "unit": "%"},
      {"measurement": "viability at 0.123457 µM", "setting": "[6]; 0.123457 μM", "value": 84.5, "unit": "%"},
      {"measurement": "viability at 0.37037 µM", "setting": "[6]; 0.370370 μM", "value": 96.7, "unit": "%"},
      {"measurement": "viability at 1.11111 µM", "setting": "[6]; 1.111111 μM", "value": 96.2, "unit": "%"},
      {"measurement": "viability at 3.33333 µM", "setting": "[6]; 3.333333 μM", "value": 90.4, "unit": "%"},
      {"measurement": "EC50", "setting": "[6]; U937 treated with TSZ, 24 h", "value": 17.8, "unit": "nM"},
      {"measurement": "survival rate", "setting": "[7]; 40 mg/kg i.p. once a day for 10 d, 3% DSS 7 d", "value": 100, "unit": "%"},
      {"measurement": "1 means death, 0 means survival", "setting": "[7]; Figure 9f, individual mice, time 14", "value": 0},
      {"measurement": "infiltration by S100a9-positive cells", "setting": "[8]", "value": "no infiltration by S100a9-positive cells was observed"},
      {"measurement": "tissue damage in the colons (histopathology)", "setting": "[8]", "value": "substantially decreased tissue damage"},
      {"measurement": "doses well tolerated", "setting": "[9]", "value": "up to 250 mg/kg"},
      {"measurement": "Dead cell ratio (%)", "setting": "[10]; 3 nM", "value": "15.55% and 9.32% and 10.06% and 11.13%"},
      {"measurement": "Dead cell ratio (%)", "setting": "[10]; 10 nM, listed as RI-963", "value": "9.02% and 6.38% and 5.61% and 6.01%"},
      {"measurement": "TSZ-induced necroptosis, dual staining", "setting": "[10]; HT29, 24 h", "value": "inhibited TSZ-induced necroptosis and improved cell survival in a concentration-dependent manner"}
    ]}
  ]
}
